Test results: patent publication US20250388571A1, “AMP-ACTIVATED PROTEIN KINASE MODULATOR COMPOUNDS AND USES THEREOF” (Biolexis Therapeutics, Inc., priority 2024, published 2025)

Columns and labels:
[1] = molecular target: AMPK (A2/B1/G3) (Homo sapiens, UniProt P54646+Q9UGI9+Q9Y478); assay: AMPK kinase binding activity in activation mode (AC50); assay type: biochemical
[2] = molecular target: AMPK (A2/B2/G3) (Homo sapiens, UniProt O43741+P54646+Q9UGI9); assay: as above; assay type: biochemical
Text: In Vitro AMPK Kinase Inhibition Experiments

Chain of AMPK (A2/B2/G3) (P54646 whole entry): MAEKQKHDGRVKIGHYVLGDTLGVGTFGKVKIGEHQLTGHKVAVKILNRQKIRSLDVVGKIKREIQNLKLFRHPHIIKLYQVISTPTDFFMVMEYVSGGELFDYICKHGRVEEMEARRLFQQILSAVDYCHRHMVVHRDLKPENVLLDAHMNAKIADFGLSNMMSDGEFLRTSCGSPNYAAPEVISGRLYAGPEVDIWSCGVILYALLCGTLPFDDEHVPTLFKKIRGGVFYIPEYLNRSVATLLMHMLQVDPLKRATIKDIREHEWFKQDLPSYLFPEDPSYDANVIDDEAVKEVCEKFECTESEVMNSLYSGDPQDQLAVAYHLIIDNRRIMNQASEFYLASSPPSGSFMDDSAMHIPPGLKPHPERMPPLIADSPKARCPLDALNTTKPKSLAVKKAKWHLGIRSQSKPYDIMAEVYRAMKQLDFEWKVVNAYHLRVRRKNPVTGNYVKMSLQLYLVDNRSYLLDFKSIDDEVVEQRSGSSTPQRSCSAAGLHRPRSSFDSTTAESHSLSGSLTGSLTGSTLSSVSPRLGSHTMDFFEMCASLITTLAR
Chain of AMPK (A2/B2/G3) (O43741 whole entry): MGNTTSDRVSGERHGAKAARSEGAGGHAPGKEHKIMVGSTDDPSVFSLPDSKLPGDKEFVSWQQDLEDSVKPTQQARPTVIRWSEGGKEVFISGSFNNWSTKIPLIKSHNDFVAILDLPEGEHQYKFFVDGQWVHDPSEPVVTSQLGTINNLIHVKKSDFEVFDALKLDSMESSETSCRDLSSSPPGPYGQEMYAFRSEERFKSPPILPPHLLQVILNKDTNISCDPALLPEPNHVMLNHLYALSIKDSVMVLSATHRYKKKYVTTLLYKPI
Chain of AMPK (A2/B2/G3) (Q9UGI9 whole entry): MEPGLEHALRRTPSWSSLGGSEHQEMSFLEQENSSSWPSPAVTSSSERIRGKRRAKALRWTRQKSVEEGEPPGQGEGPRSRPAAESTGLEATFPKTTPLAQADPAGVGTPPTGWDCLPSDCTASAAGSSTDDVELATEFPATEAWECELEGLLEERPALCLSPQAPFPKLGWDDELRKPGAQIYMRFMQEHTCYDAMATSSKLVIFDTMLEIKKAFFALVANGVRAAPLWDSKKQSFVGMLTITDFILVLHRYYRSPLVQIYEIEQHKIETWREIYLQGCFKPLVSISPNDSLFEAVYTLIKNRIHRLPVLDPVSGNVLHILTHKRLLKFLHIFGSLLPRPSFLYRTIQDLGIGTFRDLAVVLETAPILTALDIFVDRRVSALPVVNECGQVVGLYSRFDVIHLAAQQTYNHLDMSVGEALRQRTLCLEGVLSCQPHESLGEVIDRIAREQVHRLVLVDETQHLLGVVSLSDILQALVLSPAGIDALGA
Chain of AMPK (A2/B1/G3) (P54646 whole entry): as the sequence (P54646 whole entry) above
Chain of AMPK (A2/B1/G3) (Q9Y478 whole entry): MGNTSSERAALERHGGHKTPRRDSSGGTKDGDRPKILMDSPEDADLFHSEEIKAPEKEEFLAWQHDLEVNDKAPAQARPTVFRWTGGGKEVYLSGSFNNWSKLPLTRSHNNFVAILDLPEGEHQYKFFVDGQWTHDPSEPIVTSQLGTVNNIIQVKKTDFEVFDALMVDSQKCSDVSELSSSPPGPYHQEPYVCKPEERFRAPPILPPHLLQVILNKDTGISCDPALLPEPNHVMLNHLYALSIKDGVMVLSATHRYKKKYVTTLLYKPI
Chain of AMPK (A2/B1/G3) (Q9UGI9 whole entry): as the sequence (Q9UGI9 whole entry) above

Compound | AC50 [1] [nM] | AC50 [2] [nM]
1-(6-chloro-5-(4-(1- hydroxycyclobutyl) phenyl)- 1H-indol-3-yl)-4-methyl-4,5- dihydro-3H-1l6,2,5- thiadiazol-3-one 1-oxide (racemic) [Compound I-2, 1-(6-chloro-5-(4-(1-hydroxycyclobutyl)phenyl)-1H-indol-3-yl)-4-methyl-4,5-dihydro-3H-1l6,2,5-thiadiazol-3-one 1-oxide (racemic)] | 10 to 500 | 
C[C@@H]1NS(=O)(c2c[nH]c3cc(Cl)c(-c4ccc(C5(O)CCC5)cc4)cc23)=NC1=O (stereo partly drawn) [Compound I-3, (4S)-1-(6-chloro-5-(4-(1-hydroxycyclobutyl)phenyl)-1H-indol-3-yl)-4-methyl-4,5-dihydro-3H-1l6,2,5-thiadiazol-3-one 1-oxide] | 10 to 500 | 
C[C@H]1NS(=O)(c2c[nH]c3cc(Cl)c(-c4ccc(C5(O)CCC5)cc4)cc23)=NC1=O (stereo partly drawn) [Compound I-4, (4R)-1-(6-chloro-5-(4-(1-hydroxycyclobutyl)phenyl)-1H-indol-3-yl)-4-methyl-4,5-dihydro-3H-1l6,2,5-thiadiazol-3-one 1-oxide] | 10 to 500 | 
O=c1[nH]c(-c2c[nH]c3ncc(-c4ccc(C5(O)CCC5)cc4)cc23)no1 [Compound I-9, 3-(5-(4-(1-hydroxycyclobutyl)phenyl)-1H-pyrrolo[2,3-b]pyridin-3-yl)-1,2,4-oxadiazol-5(4H)-one] | 10 to 500 | 
O=P(O)(O)CSc1c[nH]c2cc(F)c(-c3ccc(N4CC[C@H](O)C4)cc3)cc12 [Compound I-24, (S)-(((6-fluoro-5-(4-(3-hydroxypyrrolidin-1-yl)phenyl)-1H-indol-3-yl)thio)methyl)phosphonic acid] | 10 to 500 | 500 to 5000
O=P(O)(O)CSc1c[nH]c2cc(F)c(-c3ccc(N4CC[C@H](O)C4)cc3)c(F)c12 [Compound I-25, (S)-(((4,6-difluoro-5-(4-(3-hydroxypyrrolidin-1-yl)phenyl)-1H-indol-3-yl)thio)methyl)phosphonic acid] | 10 to 500 | 500 to 5000
O=P(O)(O)CSc1c[nH]c2cc(F)c(N3CC[C@H](O)C3)c(F)c12 [Compound I-26, (S)-(((4,6-difluoro-5-(3-hydroxypyrrolidin-1-yl)-1H-indol-3-yl)thio)methyl) phosphonic acid] | 10 to 500 | 500 to 5000
O=c1[nH]c(-c2c[nH]c3cc(F)c(-c4ccc(C5(O)CCC5)cc4)nc23)no1 [Compound I-44, 3-(6-fluoro-5-(4-(1-hydroxycyclobutyl)phenyl)-1H-pyrrolo[3,2-b]pyridin-3-yl)-1,2,4-oxadiazol-5(4H)-one] | 500 to 5000 | 
O=c1[nH]c(-c2c[nH]c3cc(F)c(-c4ccc(C5(O)COC5)cc4)nc23)no1 [Compound I-45, 3-(6-fluoro-5-(4-(3-hydroxyoxetan-3-yl)phenyl)-1H-pyrrolo[3,2-b]pyridin-3-yl)-1,2,4-oxadiazol-5(4H)-one] | 5000 to 7500 | 
O=P(O)(O)CSc1c[nH]c2cc(F)c(-c3ccc(C4(O)CCC4)cc3)c(F)c12 [Compound I-46, (((4,6-difluoro-5-(4-(1-hydroxycyclobutyl)phenyl)-1H-indol-3-yl)thio)methyl)phosphonic acid] | 10 to 500 | 500 to 5000
O=P(O)(O)CSc1c[nH]c2cc(F)c(-c3ccc(C4(O)CCC4)cc3)cc12 [Compound I-47, (((6-fluoro-5-(4-(1-hydroxycyclobutyl)phenyl)-1H-indol-3-yl)thio)methyl)phosphonic acid] | 10 to 500 | 500 to 5000
O=P(O)(O)CSc1c[nH]c2ccc(-c3ccc(C4(O)CCC4)cc3)cc12 [Compound I-48, (((5-(4-(1-hydroxycyclobutyl)phenyl)-1H-indol-3-yl)thio)methyl)phosphonic acid] | 10 to 500 | 500 to 5000
OB1OCc2ccc(-c3c[nH]c4cc(Cl)c(-c5ccc(C6(O)CCC6)cc5)cc34)cc21 [Compound I-75, 6-(6-chloro-5-(4-(1-hydroxycyclobutyl)phenyl)-1H-indol-3-yl)benzo[c][1,2]oxaborol-1(3H)-ol] | 500 to 5000 | 500 to 5000
